Reference: ChEMBL document CHEMBL1141099, “Discovery of N-(2,6-dimethylphenyl)-substituted semicarbazones as anticonvulsants: hybrid pharmacophore-based design” (2005)

Key:
Rattus norvegicus [1] = species: Rattus norvegicus; assay: Ex vitro percentage inhibition activity against GABA-T enzyme at a concentration of 1.25 uM after 6 h; type: functional
Mus musculus [2] = assay: Minimum dose required for anticonvulsant activity when given i.p., at 0.5 hr in mice upon neurotoxicity seizure using rotarod test; type: functional
Mus musculus [3] = assay: Post treatment activity score for CNS study using a actophotometer at a dose of 100 mg/Kg after 0.5 hr when given i.p., in mice (No. of animals 6); Control (24h before) 281
Mus musculus [4] = assay: Minimum dose required for anticonvulsant activity when given i.p., at 0.5 hr in mice upon maximal electroshock seizure; type: functional
Mus musculus [5] = assay: Post treatment immobility time for CNS study using Porsolt's swimpool test at a dose of 100 mg/Kg after 1 hr when given i.p., in mice (No. of animals 6); Control (24h before) 132
Mus musculus [6] = assay: Mean sleeping time evaluated for CNS study using the pentobarbital-induced narcosis model at a dose of 100 mg/Kg when given i.p., in mice (No. of animals 6)
Rattus norvegicus [7] = species: Rattus norvegicus; assay: Ex vitro percentage inhibition activity against GABA-T enzyme at a concentration of 1.25 uM after 4.5 h; type: functional
Rattus norvegicus [8] = assay: Effective dose required for anticonvulsant activity when given i.p., at 0.5 hr in rat upon maximal electroshock seizure; type: functional; settings: ip
Mus musculus [9] = assay: Minimum dose required for anticonvulsant activity when given i.p., at 0.5 hr in mice upon subcutaneous strychnine seizure; type: functional
Rattus norvegicus [10] = assay: Toxic dose observed for anticonvulsant activity when given i.p., at 0.5 hr in rat upon neurotoxicity seizure; type: functional; settings: ip
Rattus norvegicus [11] = assay: Number of rats protected at a dose of 30 mg/Kg when given oral at 4 hr upon maximal electroshock seizure; Total number of rats = 4; type: functional
Mus musculus [12] = assay: Minimum dose required for anticonvulsant activity when given i.p., at 4 hr in mice upon maximal electroshock seizure; type: functional
Rattus norvegicus [13] = assay: Number of rats protected at a dose of 30 mg/Kg when given oral at 2 hr upon maximal electroshock seizure; Total number of rats = 4; type: functional
Mus musculus [14] = assay: Post treatment activity score for CNS study using a actophotometer at a dose of 100 mg/Kg after 1 hr when given i.p., in mice (No. of animals 6); Control (24h before) 281
[15] = target: 4-aminobutyrate aminotransferase, mitochondrial (Rattus norvegicus) (UniProt P50554); assay: In vitro percentage inhibition activity against GABA-T enzyme at a concentration of 0.625 uM after 6 h
Rattus norvegicus [16] = assay: Effect on GABA level in rat whole brain concentration after 7 days post-treatment at a dose of 30 mg/Kg when given orally; Control 50.5; type: functional
Rattus norvegicus [17] = species: Rattus norvegicus; assay: Protective index between effective dose and toxic dose in rat; type: functional
Mus musculus [18] = assay: Minimum dose required for anticonvulsant activity when given i.p., at 0.5 hr in mice upon subcutaneous pentylenetetrazole seizure; type: functional
Rattus norvegicus [19] = assay: Number of rats protected at a dose of 30 mg/Kg when given oral at 1 hr upon maximal electroshock seizure; Total number of rats = 4; type: functional
Rattus norvegicus [20] = assay: Number of rats protected at a dose of 30 mg/Kg when given oral at 0.25 hr upon maximal electroshock seizure; Total number of rats = 4; type: functional
Rattus norvegicus [21] = species: Rattus norvegicus; assay: Ex vitro percentage inhibition activity against GABA-T enzyme at a concentration of 1.25 uM after 3 h; type: functional
Rattus norvegicus [22] = assay: Effect on GABA level in rat whole brain concentration after 2 hr post-treatment at a dose of 100 mg/Kg when given i.p.; Control 48.4; type: functional
[23] = target: 4-aminobutyrate aminotransferase, mitochondrial (Rattus norvegicus) (UniProt P50554); assay: In vitro percentage inhibition activity against GABA-T enzyme at a concentration of 0.625 uM after 3 h
[24] = target: 4-aminobutyrate aminotransferase, mitochondrial (Rattus norvegicus) (UniProt P50554); assay: In vitro percentage inhibition activity against GABA-T enzyme at a concentration of 0.625 uM after 4.5 h
Rattus norvegicus [25] = assay: Number of rats protected at a dose of 30 mg/Kg when given oral at 0.5 hr upon maximal electroshock seizure; Total number of rats = 4; type: functional
Rattus norvegicus [26] = assay: After discharge duration time when before administered in rat 1 at dose 130 mg/Kg when given i.p., upon preliminary hippocampal-kindling screen; Prodrug time 26-39 s; type: functional, Hippocampus
Rattus norvegicus [27] = assay: Seizure score after administration in rat 2 at dose 130 mg/Kg when given i.p., upon preliminary hippocampal-kindling screen; type: functional, Hippocampus
Rattus norvegicus [28] = assay: Seizure score before administration in rat 2 at dose 130 mg/Kg when given i.p., upon preliminary hippocampal-kindling screen; type: functional, Hippocampus
[29] = target: 4-aminobutyrate aminotransferase, mitochondrial (Rattus norvegicus) (UniProt P50554); assay: In vitro percentage inhibition activity against GABA-T enzyme at a concentration of 1.25 uM after 6 h
Rattus norvegicus [30] = assay: After discharge duration time when after administered in rat 2 at dose 130 mg/Kg when given i.p., upon preliminary hippocampal-kindling screen; type: functional, Hippocampus
[31] = target: 4-aminobutyrate aminotransferase, mitochondrial (Rattus norvegicus) (UniProt P50554); assay: In vitro percentage inhibition activity against GABA-T enzyme at a concentration of 1.25 uM after 3 h
Rattus norvegicus [32] = assay: Toxic dose observed for anticonvulsant activity when given orally at 4 h in rat upon neurotoxicity seizure; type: functional; settings: po
Rattus norvegicus [33] = assay: Seizure score after administration in rat 1 at dose 130 mg/Kg when given i.p., upon preliminary hippocampal-kindling screen; type: functional, Hippocampus
Rattus norvegicus [34] = assay: After discharge duration time when after administered in rat 1 at dose 130 mg/Kg when given i.p., upon preliminary hippocampal-kindling screen; type: functional, Hippocampus
Mus musculus [35] = assay: Post treatment immobility time for CNS study using Porsolt's swimpool test at a dose of 100 mg/Kg after 1 h when given i.p., in mice (No. of animals 6); Control (24h before) 190
Rattus norvegicus [36] = species: Rattus norvegicus; assay: Ex vitro percentage inhibition activity against GABA-T enzyme at a concentration of 2.5 uM after 4.5 h; type: functional
[37] = target: 4-aminobutyrate aminotransferase, mitochondrial (Rattus norvegicus) (UniProt P50554); assay: In vitro percentage inhibition activity against GABA-T enzyme at a concentration of 1.25 uM after 4.5 h
Rattus norvegicus [38] = assay: After discharge duration time when before administered in rat 2 at dose 130 mg/Kg when given i.p., upon preliminary hippocampal-kindling screen; Prodrug time 30-39 s; type: functional, Hippocampus
Mus musculus [39] = assay: Minimum dose required for anticonvulsant activity when given i.p., at 2 hr in mice upon subcutaneous strychnine seizure; type: functional
Mus musculus [40] = assay: Post treatment activity score for CNS study using a actophotometer at a dose of 100 mg/Kg after 1 hr when given i.p., in mice (No. of animals 6); Control (24h before) 217
Rattus norvegicus [41] = assay: Enzymatic activity to assess the increase in level of SGOT at a dose of 30 mg/Kg for 14 days when given p.o., in 6 rats; Control 73.1; type: functional
Rattus norvegicus [42] = species: Rattus norvegicus; assay: Ex vitro percentage inhibition activity against GABA-T enzyme at a concentration of 2.5 uM after 3 h; type: functional
Rattus norvegicus [43] = assay: Effective dose required for anticonvulsant activity when given orally at 4 h in rat upon maximal electroshock seizure; type: functional; settings: po
Rattus norvegicus [44] = assay: Seizure score before administration in rat 1 at dose 130 mg/Kg when given i.p., upon preliminary hippocampal-kindling screen; type: functional, Hippocampus
Rattus norvegicus [45] = species: Rattus norvegicus; assay: Ex vitro percentage inhibition activity against GABA-T enzyme at a concentration of 2.5 uM after 6 h; type: functional
Rattus norvegicus [46] = assay: Enzymatic activity to assess the increase in level of SGPT at a dose of 30 mg/Kg for 14 days when given p.o., in 6 rats; Control 45.0; type: functional
Mus musculus [47] = assay: Post treatment activity score for CNS study using a actophotometer at a dose of 100 mg/Kg after 0.5 hr when given i.p., in mice (No. of animals 6); Control (24h before) 217

Chain of 4-aminobutyrate aminotransferase, mitochondrial (Rattus norvegicus) (P50554 28-500 limits assumed): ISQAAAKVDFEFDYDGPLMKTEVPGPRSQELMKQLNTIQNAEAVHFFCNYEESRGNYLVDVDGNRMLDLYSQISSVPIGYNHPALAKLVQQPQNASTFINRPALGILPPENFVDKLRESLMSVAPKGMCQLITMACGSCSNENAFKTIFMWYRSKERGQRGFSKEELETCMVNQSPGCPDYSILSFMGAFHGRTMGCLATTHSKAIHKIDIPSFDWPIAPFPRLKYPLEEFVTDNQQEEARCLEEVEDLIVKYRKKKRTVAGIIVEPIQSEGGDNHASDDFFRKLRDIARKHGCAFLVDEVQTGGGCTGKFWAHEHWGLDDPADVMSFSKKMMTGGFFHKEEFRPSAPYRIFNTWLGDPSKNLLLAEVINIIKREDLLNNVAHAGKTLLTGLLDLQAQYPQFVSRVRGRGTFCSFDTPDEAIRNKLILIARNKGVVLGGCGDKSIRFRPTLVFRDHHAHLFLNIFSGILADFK

Cc1cccc(C)c1NC(=O)N/N=C/c1ccccc1[N+](=O)[O-]
Inhibition (Rattus norvegicus [1]): 23% | NT (Mus musculus [2]): 300 mg/kg | Activity (Mus musculus [3]): 177 | MES (Mus musculus [4]): 300 mg/kg | Activity (Mus musculus [5]): 190 | Time (Mus musculus [6]): 141 min | Inhibition (Rattus norvegicus [7]): 98% | ED50 (Rattus norvegicus [8]): 23.2 mg/kg | STY seizure (Mus musculus [9]): 100 mg/kg | TD50 (Rattus norvegicus [10]): > 100 mg/kg | Activity (Rattus norvegicus [11]): 2 | MES (Mus musculus [12]): 300 mg/kg | Activity (Rattus norvegicus [13]): 2 | Activity (Mus musculus [14]): 177 | inhibition [15]: 40% | Activity (Rattus norvegicus [16]): 81.6 ug/100mg of tissue | PI (Rattus norvegicus [17]): >4.3 | PTZ seizure (Mus musculus [18]): 300 mg/kg | Activity (Rattus norvegicus [19]): 2 | Activity (Rattus norvegicus [20]): 2 | Inhibition (Rattus norvegicus [21]): 0% | Activity (Rattus norvegicus [22]): 84.7 ug/100mg of tissue | inhibition [23]: 53% | inhibition [24]: 0% | Activity (Rattus norvegicus [25]): 2

Cc1cccc(C)c1NC(=O)N/N=C/c1ccccc1O
ADD (Rattus norvegicus [26]): 39 s | Score (Rattus norvegicus [27]): 1 | Score (Rattus norvegicus [28]): 5 | inhibition [29]: 9% | ADD (Rattus norvegicus [30]): 25 s | inhibition [31]: 58% | MES (Mus musculus [4]): 100 mg/kg | TD50 (Rattus norvegicus [32]): > 500 mg/kg | Score (Rattus norvegicus [33]): 1 | ADD (Rattus norvegicus [34]): 59 s | Activity (Mus musculus [35]): 191 | Inhibition (Rattus norvegicus [36]): 43% | inhibition [37]: 0% | ADD (Rattus norvegicus [38]): 39 s | STY seizure (Mus musculus [39]): 100 mg/kg | Activity (Mus musculus [40]): 135 | SGOT activity (Rattus norvegicus [41]): 64.8 units/mL | STY seizure (Mus musculus [9]): 30 mg/kg | Activity (Rattus norvegicus [11]): 4 | Inhibition (Rattus norvegicus [42]): 90% | MES (Mus musculus [12]): 300 mg/kg | ED50 (Rattus norvegicus [43]): 19.8 mg/kg | Activity (Rattus norvegicus [13]): 4 | Score (Rattus norvegicus [44]): 5 | Activity (Rattus norvegicus [16]): 110 ug/100mg of tissue | PI (Rattus norvegicus [17]): >25.1 | PTZ seizure (Mus musculus [18]): 300 mg/kg | Activity (Rattus norvegicus [19]): 3 | Activity (Rattus norvegicus [20]): 1 | Inhibition (Rattus norvegicus [45]): 0% | SGPT activity (Rattus norvegicus [46]): 43.3 units/mL | Activity (Mus musculus [47]): 155 | Activity (Rattus norvegicus [22]): 92.1 ug/100mg of tissue | Activity (Rattus norvegicus [25]): 3
